From paper PMC8237569 (Proceedings of the National Academy of Sciences of the …, 2021)
Converted amounts (≈) assume the structure as drawn. Where two headings read alike, the source gives them in different places.

How the values were obtained:
[1] = test system: F-ATP synthase; conditions: read-out: IC50 against F-ATP synthase; cited from earlier work
[2] = test system: M. tuberculosis H37Rv (ATCC 27294), wt; assay: microbe, parasite or virus in culture; format: cell-based; conditions: Mycobacterium tuberculosis, ATCC27294|H37RV
[3] = test system: NC1=NC2(CCCCC2)N(c2ccc(OCc3cn(CCCCOc4ccc5ccc(=O)oc5c4)nn3)cc2)C(N)=N1; assay: purified protein, by the assay type; conditions: pH 7.5

Row | Compound | MIC50 [2] | also measured
1 | COc1nc2ccc(Br)cc2cc1[C@@H](c1ccccc1)[C@@](O)(CCN(C)C)c1cccc2ccccc12 [Bedaquiline] | – | IC50 [1]: 2.5 nM
2 | NNC(=O)c1ccncc1 [INH, isoniazid] | 400 nM (≈ 0.0549 µg/mL) | –
3 | Nc1ccc(C(=O)O)c(O)c1 [PAS, para-aminosalicylic acid] | 200 nM (≈ 0.0306 µg/mL) | –
4 | O=[N+]([O-])c1cn2c(n1)OC[C@@H](OCc1ccc(OC(F)(F)F)cc1)C2 [PTM, pretomanid] | 200 nM (≈ 0.0719 µg/mL) | –
5 | CO[C@H]1/C=C/O[C@@]2(C)Oc3c(C)c(O)c4c(O)c(c(/C=N/N5CCN(C)CC5)c(O)c4c3C2=O)NC(=O)/C(C)=C\C=C\[C@H](C)[C@H](O)[C@@H](C)[C@@H](O)[C@@H](C)[C@H](OC(C)=O)[C@@H]1C [RIF, rifampicin] | – | MIC50 ([2]; read-out: MIC50, RIF (nM)): 1.6 nM (≈ 0.00132 µg/mL)
6 | Ddn (Rv3547) (Mycobacterium tuberculosis H37Rv) | – | Km [3]: 3.47 ± 0.51 µM
